Source: patent publication US20010053796A1, “Delta-aminolevulinic acid for prevention and treatment of infection microorganisms and parasite” (priority 2000, published 2001)
Like-named read-outs stand apart in the source and are kept apart here.

Tested on: Scutica
Assay: Extinction effect for Scutica in vitro
Format: cell-based
Description: Scutica used in this experiment was taken from epidermal mucus of infected flatfish and suspended in HBSS. The suspension was kept at room temperature for 30 min and centrifuged at 800 rpm for 10 min. The supernatant was removed. The pellet was suspended in MEM-10 (minimum essential medium, 10% FBS, streptomycine, penicilin) and kept for 30 min, and then centrifuged in the same manner as above. The supernatant was removed and left imagoes was gained and made into imagoes suspension with certain number of imagoes by counting with the blood counting machine. The imagoes suspension was subcultured in vitro and inoculated to prepared FHM cell of certain number (2.5×10^5 cells/mL) and then cultured at 17° C. Before carrying out the experiment, by measuring the extinction effect for Scutica according to the concentration of δ-aminolevulinic acid and reaction time, optimum δ-aminolevulinic acid concentration and treatment time was examined for Scutica extermination. The Scutica culture solution cultured in FHM cell line was centrifuged at 3000 rpm for 5 min. The supernatant was removed and was added to PBS. It was washed 3 times to use for the experiment. 1.0 M δ-aminolevulinic acid solution made from sterilized 3rd distilled water was diluted by 2-fold up to 1000-fold (1.0 mM). Scutica was added to each well of 96-well microplate at an amount of 50 μL. Then, δ-aminolevulinic acid solution diluted by 2 steps were added and cultured for 120 min while the viability of Scutica was monitored. During the culture for 120 min, extinction time was measured in 10 min intervals, at each concentration. Between each inoculation, they were stirred for 5 min and were kept for 5 min. after reaction, 1% trypan blue which is staining solution for organism was added to each wells at an amount of 100 μL and mixed. In cultured Scutica with the diluted solution of δ-aminolevulinic acid, the number of parasites was counted by the blood counting machine, according to time. […] Through the 60 min-treatment, more than 50% of Scutica were extinct. At the actual concentration of 2 mM, about 50% of Scutica was extinct through 1 hour-treatment.

## NCC(=O)CCC(=O)O [δ-aminolevulinic acid]
500 mM to 2 mM, treatment of at minimum 2 hours
  Scutica extinct: more than 90%
30˜15 mM
  time to completely extinct Scutica: 20 min
500 to 60 mM
  time to completely extinct Scutica: 10 min
60 min-treatment, concentration not given
  Scutica extinct: more than 50%
Actual concentration of 2 mM, 1 hour-treatment
  Scutica extinct: about 50%
Actual concentration of 8 mM
  time to completely extinct Scutica: 60 min
read-out: Viability (%) of Scutica, 2.0 mM, reaction time 10
  viability at 2000 µM: 50%
read-out: Viability (%) of Scutica, 2.0 mM, reaction time 20
  viability at 2000 µM: 60%
read-out: Viability (%) of Scutica, 2.0 mM, reaction time 30
  viability at 2000 µM: 40%
read-out: Viability (%) of Scutica, 2.0 mM, reaction time 40
  viability at 2000 µM: 45%
read-out: Viability (%) of Scutica, 2.0 mM, reaction time 50
  viability at 2000 µM: 35%
read-out: Viability (%) of Scutica, 2.0 mM, reaction time 60
  viability at 2000 µM: 55%
read-out: Viability (%) of Scutica, 2.0 mM, reaction time 70
  viability at 2000 µM: 40%
read-out: Viability (%) of Scutica, 2.0 mM, reaction time 80
  viability at 2000 µM: 40%
read-out: Viability (%) of Scutica, 2.0 mM, reaction time 90
  viability at 2000 µM: 35%
read-out: Viability (%) of Scutica, 2.0 mM, reaction time 110
  viability at 2000 µM: 40%
read-out: Viability (%) of Scutica, 2.0 mM, reaction time 120
  viability at 2000 µM: 10%
read-out: Viability (%) of Scutica, 4.0 mM, reaction time 10
  viability at 4000 µM: 50%
read-out: Viability (%) of Scutica, 4.0 mM, reaction time 20
  viability at 4000 µM: 50%
read-out: Viability (%) of Scutica, 4.0 mM, reaction time 30
  viability at 4000 µM: 30%
read-out: Viability (%) of Scutica, 4.0 mM, reaction time 40
  viability at 4000 µM: 30%
read-out: Viability (%) of Scutica, 4.0 mM, reaction time 50
  viability at 4000 µM: 20%
read-out: Viability (%) of Scutica, 4.0 mM, reaction time 60
  viability at 4000 µM: 45%
read-out: Viability (%) of Scutica, 4.0 mM, reaction time 70
  viability at 4000 µM: 30%
read-out: Viability (%) of Scutica, 4.0 mM, reaction time 80
  viability at 4000 µM: 45%
read-out: Viability (%) of Scutica, 4.0 mM, reaction time 90
  viability at 4000 µM: 40%
read-out: Viability (%) of Scutica, 4.0 mM, reaction time 110
  viability at 4000 µM: 10%
read-out: Viability (%) of Scutica, 4.0 mM, reaction time 120
  viability at 4000 µM: 10%
read-out: Viability (%) of Scutica, 8.0 mM, reaction time 10
  viability at 8000 µM: 45%
read-out: Viability (%) of Scutica, 8.0 mM, reaction time 20
  viability at 8000 µM: 50%
read-out: Viability (%) of Scutica, 8.0 mM, reaction time 30
  viability at 8000 µM: 45%
read-out: Viability (%) of Scutica, 8.0 mM, reaction time 40
  viability at 8000 µM: 25%
read-out: Viability (%) of Scutica, 8.0 mM, reaction time 50
  viability at 8000 µM: 40%
read-out: Viability (%) of Scutica, 8.0 mM, reaction time 60
  viability at 8000 µM: 40%
read-out: Viability (%) of Scutica, 8.0 mM, reaction time 70
  viability at 8000 µM: 0%
read-out: Viability (%) of Scutica, 8.0 mM, reaction time 80
  viability at 8000 µM: 0%
read-out: Viability (%) of Scutica, 8.0 mM, reaction time 90
  viability at 8000 µM: 0%
read-out: Viability (%) of Scutica, 8.0 mM, reaction time 110
  viability at 8000 µM: 0%
read-out: Viability (%) of Scutica, 8.0 mM, reaction time 120
  viability at 8000 µM: 0%
read-out: Viability (%) of Scutica, 15 mM, reaction time 10
  viability at 15000 µM: 30%
read-out: Viability (%) of Scutica, 15 mM, reaction time 20
  viability at 15000 µM: 0%
read-out: Viability (%) of Scutica, 15 mM, reaction time 30
  viability at 15000 µM: 0%
read-out: Viability (%) of Scutica, 15 mM, reaction time 40
  viability at 15000 µM: 0%
read-out: Viability (%) of Scutica, 15 mM, reaction time 50
  viability at 15000 µM: 0%
read-out: Viability (%) of Scutica, 15 mM, reaction time 60
  viability at 15000 µM: 0%
read-out: Viability (%) of Scutica, 15 mM, reaction time 70
  viability at 15000 µM: 0%
read-out: Viability (%) of Scutica, 15 mM, reaction time 80
  viability at 15000 µM: 0%
read-out: Viability (%) of Scutica, 15 mM, reaction time 90
  viability at 15000 µM: 0%
read-out: Viability (%) of Scutica, 15 mM, reaction time 110
  viability at 15000 µM: 0%
read-out: Viability (%) of Scutica, 15 mM, reaction time 120
  viability at 15000 µM: 0%
read-out: Viability (%) of Scutica, 30 mM, reaction time 10
  viability at 30000 µM: 20%
read-out: Viability (%) of Scutica, 30 mM, reaction time 20
  viability at 30000 µM: 0%
read-out: Viability (%) of Scutica, 30 mM, reaction time 30
  viability at 30000 µM: 0%
read-out: Viability (%) of Scutica, 30 mM, reaction time 40
  viability at 30000 µM: 0%
